The record followed here is a melting point compilation (Tetko et al.; mined from patent text by program, amines drawn as free bases though some values may be those of a salt).

Structures are written as SMILES.

One may read the melting point as the temperature of the solid-liquid transition.

For `Cc1ccc2[nH]ncc2c1NCCN`, the melting point was 153 to 155 °C.
For the compound `Clc1ccc2nc(-c3ccccc3)cc(CCC3CCCNC3)c2c1` (stereo unspecified), the melting point is > 260 °C.
In the case of `CC(C)(C)c1csc(NC(=O)c2ccn3c(=O)c(/C=C/C(=O)O)c(N4CCC(OC(=O)NCCO)CC4)nc3c2)n1` it was 231 to 234 °C; in that of `COc1ccccc1C(=O)NCCc1ccc(-c2ccc(OC(C)(C)C(=O)O)cc2)cc1`, 133 °C.
As to `CCC(CCc1cc(-c2ccccc2)nc2ccccc12)C(=O)N(CC)CC` (stereo unspecified), the melting point amounted to 81 °C.
In the case of `OCCn1ccc2ncnc(Nc3ccc(Oc4cccc5sncc45)c(Cl)c3)c21` it was 218 to 220 °C.
The compound `CC(C)NC(=O)c1ccc(-c2ccc3oc(C4CCN(C(=O)OC(C)C)CC4)nc3c2)cc1F` came in with a melting point of 147 to 150 °C.
On to `CCOC(=O)c1cnc2c(cnn2Cc2ccco2)c1OCC`, for which the melting point lay in the range of 93 to 96 °C.
With `NCCCCC(OP(=O)(O)CCCCc1ccc(F)cc1)C(=O)N1CCCC1C(=O)O` (stereo unspecified), the melting point was in the range of 178 to 185 °C.
In turn, `Cc1ncc2c(n1)-c1ccccc1C2(Cc1ccnc(F)c1)Cc1ccnc(F)c1` yielded a melting point of 114 to 115 °C.
In the case of `CCCN(CCC)C(=O)Cn1c(-c2ccc(OC)cc2)nc2cccnc21` it was 127 to 129 °C.
For `N=C(NO)c1ccc(-c2cccc(-c3nc4cc(C(=N)NO)ccc4[nH]3)c2)nc1`, the melting point fell in the range of 295 to 297 °C.
In the case of `CC(C)(C)c1cc(C(=O)c2cccs2)cc(CN(CCO)CCO)c1O` it was 108 to 110 °C; in that of `NS(=O)(=O)c1ccccc1OC(Cl)=CCl`, 147 to 149 °C.
With `COc1ccc(N2CC(=O)N(c3ccc(OC)nc3-c3ccc(N(C)C)cc3)CC2=O)cc1`, the melting point fell in the range of 138 to 139 °C.
Under `O=C(O)c1cc([N+](=O)[O-])cc2c1Nc1ccc(CCCc3ccc(Cl)c(Cl)c3)cc1O2` stands 90 to 93 °C.
In the case of `CCCCCCCCOC(=O)C=Cc1ccc(N(C)C)cc1` it was 48 to 49.5 °C.
In the case of `CC(O)C(CCCc1ccccc1)n1ncc2c(=O)[nH]c(Cc3ccc(F)cc3)nc21` (stereo unspecified) it was 103 °C.
As for `CN(NC(=O)OCc1ccccc1)C(=O)NCC(F)F`, the melting point was 79 to 82 °C.
`CS(=O)(=O)Cc1c(C(=O)NN2CCCCC2)nn(-c2ccc(Cl)cc2Cl)c1-c1ccc(Cl)cc1`: the melting point amounted to 171 °C.
`Cc1c(NC(=O)CC(C)(C)C)cc2c(c1C)OC(C)(C)C2c1ccc(Br)cc1` (stereo unspecified) had a melting point of 171 to 172 °C.
On to `COCOCc1nc(-c2ccccc2)oc1CO`, for which the melting point lay within 70 to 71 °C.
Turning to `CSc1nc2cncnc2n1Cc1ccc(F)cc1`, the melting point is 167 °C.
Under `CC(C)(C)OC(=O)NC(COCCCN)(COCCCN)COCCCN` stands 96 to 98 °C; under `O=C(O)COc1ccc2cc(CNC(=O)c3cnn(-c4ccc(Cl)cc4)c3C(F)(F)F)ccc2c1Br`, 245 °C; under `Cn1nc(-c2cnc(N)nc2-c2cccc(O)c2)ccc1=O`, 285 °C.
In the case of `CC1(C)OCC(COc2cc(N)c([N+](=O)[O-])cc2I)O1` (racemic) it was 151 °C; in that of `COC(=O)/C=C/[C@H]1[C@@H](C(=O)OCc2cnc(Oc3ccccc3)s2)C1(C)C`, 62 °C.
Regarding `CCOC(=O)c1nc2ccccc2n(CCO)c1=O`, the melting point lay in the range of 137 to 138 °C.
`CCN(Cc1ccccc1OCc1ccccc1)c1ccc(C(=O)O)c(F)c1` yielded a melting point of 154 °C.
`COc1ccc(-c2cc(=O)n(Cc3ccc(F)cc3)nc2-c2ccc(OC)cc2)cc1` gave a melting point of 132 to 133 °C.
The compound `CCCc1c(OCCCOc2ccccc2C(=O)NCCCCc2cccnc2)ccc(C(C)=O)c1O` came in with a melting point of 104 to 107 °C.
Compound `COc1cc(COc2nn(-c3ccccc3)cc2C=O)ccc1OCc1nc(-c2ccco2)oc1C` showed a melting point of 137 to 138 °C.
For the compound `CCCN1C(=O)C2CC2(c2ccc(N)cc2)C1=O` (stereo unspecified), the melting point worked out at 97 °C.
In the case of `CCOC(=O)C(C)(C)Cc1cccnc1` it was 64 to 66 °C; in that of `O=C1C(CCO)Oc2cc([N+](=O)[O-])ccc2N1Cc1ccccc1[N+](=O)[O-]` (stereo unspecified), 139 to 143 °C; in that of `Cc1nc(N)sc1S(=O)(=O)NCCN(C)C`, 153 °C.
Under `COC(C)c1c(C(C)C)nc(C(C)C)c(CO)c1-c1ccc(F)cc1` (stereo unspecified) stands 151 to 153 °C; under `N#Cc1c(Nc2cccc(Cl)c2)n[nH]c1N`, 195 to 200 °C; under `C[C@H]1C(=O)C[C@@H]2C[C@H]1OO[C@]2(C)/C=C\c1ccc(C(F)(F)F)cc1Cl`, 160 °C.
Under `CCC(OC(=O)C1CC1)c1ccc(Cl)c2nc3n(c12)CCCN3c1ccc(OC)cc1Cl` (stereo unspecified) stands 130 to 132 °C; under `O=C(NC(C(=O)OCc1ccccc1)C(=O)C1CC1)c1ccc(F)cc1` (stereo unspecified), 94.5 to 96 °C.
Consider `Cc1cc(OCc2ncc([N+](=O)[O-])n2C)ccc1S(C)=O` (stereo unspecified), for which the melting point was determined as 121 °C.
Consider `Cn1cc(-c2ccccc2)c(=O)c(-c2cc(Cl)cc(Cl)c2)c1`, for which the melting point is 131 to 135 °C.
The compound `Cc1cccc(Cl)c1N1CCCN(C2CCC2)C1=S` yielded a melting point of 89 to 91 °C.
`Oc1ccc(-c2ccc(-c3ccc(O)cc3)c(-c3ccc(OCCN4CCCC4)cc3)n2)cc1` registered a melting point of 145 to 150 °C.
Consider `Cn1ncc2[nH]c3ccc(Cc4cccc(C(=O)O)c4)cc3c(=O)c21`, for which the melting point was > 300 °C.
For `Fc1ccc(NCc2ccc(NCc3ccccc3)nc2)nc1`, the melting point lay within 166 to 168 °C.
On to `CC(Oc1ncn(-c2cccc(Cl)c2)n1)C(=O)N(C)C` (stereo unspecified), for which the melting point lay within 136 to 139 °C.
In the case of `CCNc1cc(Cl)c(C(F)(F)F)cc1[N+](=O)[O-]` it was 92.5 to 94 °C.
In the case of `COc1cc(N(C(=O)C[C@H](N)C(=O)O)S(=O)(=O)c2ccc3c(ccn3C)c2)cc(OC)c1OC` it was 156 to 159 °C.
Under `CCNC(=O)N1CCn2nc(-c3ccc(F)cc3)c(-c3ccncc3)c2N1` stands 235 to 240 °C; under `CC(C)C(C)(C(=O)NCCc1ccccn1)C(C)C`, 60 to 61 °C.
In turn, `CCOC(=O)N1CCN(c2nc(N(C(C)=O)C3CC3)ccc2[N+](=O)[O-])CC1` gave a melting point of 90 to 93 °C.
In the case of `Cc1ccc([N+](=O)[O-])c2c1C(N1C(=O)c3ccccc3C1=O)CCC2=O` (stereo unspecified), the melting point lay within 220 to 230 °C.
In the case of `CCNC(=O)c1cccc(F)c1Nc1nc(Nc2cc3c(cc2OC)CCN(CC(=O)N(C)C)CC3)ncc1Cl` it was 95 to 105 °C.
In the case of `CC1(C)CCCC(C)(C)N1CCOC(=O)C(Cc1ccccc1)(Cc1ccccc1)C(=O)OCCN1C(C)(C)CCCC1(C)C` it was 77 to 78 °C; in that of `CC(C)(Cc1c[nH]c2ccccc12)NCC(O)COc1ccccc1Cl` (stereo unspecified), 150 to 154 °C.
Compound `C=CC(=O)OC(COc1ccc(C(=O)c2ccccc2)c(O)c1)COc1ccc(C(=O)c2ccccc2)c(O)c1` yielded a melting point of 98 to 100 °C.
Under `CCOC(=O)c1sc(NC(C)=O)c(C(=O)OCC)c1C` stands 130 to 131 °C.
Turning to `O=[N+]([O-])c1cccc(N2CCOCC2)c1`, the melting point was in the range of 87 to 90 °C.
